Source: patent publication US9708314B2, “Heterocyclic amide compound” (NISSAN CHEMICAL INDUSTRIES, LTD., priority 2013, dated 2017)

Legend:
Format in all cases: in vivo
[1] = system: Zea mays; assay: Test Example 4: effect on crop by application to foliage (diluvial soil, plastic box); conditions: for b: Application herbicide amount 320 g/ha, effect on crop; for b (Zea mays) effect on crop: application to foliage, application herbicide amount 320 g/ha
Outline: (§1)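 Scores run from 0 (herbicidal ratio ≤5%) to 5 (≥90%, almost fully withered) and were assessed three weeks after foliar spraying. Seedlings had been raised for 14 days at 25-30° C in sterilized diluvial soil before treatment, with the emulsion diluted in water to the stated g/ha dose.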

[2] = system: Brassica campestris L.; assay: as above; conditions: for g: Application herbicide amount 320 g/ha, effect on crop; for g (Brassica campestris L.) effect on crop: application to foliage, application herbicide amount 320 g/ha
Outline: as §1

[3] = system: Glycine max; assay: as above; conditions: for c: Application herbicide amount 320 g/ha, effect on crop; for c (Glycine max) effect on crop: application to foliage, application herbicide amount 320 g/ha
Outline: as §1

[4] = system: Beta vulgaris ssp. vulgaris; assay: as above; conditions: for f: Application herbicide amount 320 g/ha, effect on crop; for f (Beta vulgaris ssp. vulgaris) effect on crop: application to foliage, application herbicide amount 320 g/ha
Outline: as §1

[5] = system: directly sowed Oryza sativa; assay: as above; conditions: for d: Application herbicide amount 320 g/ha, effect on crop; for d (directly sowed Oryza sativa) effect on crop: application to foliage, application herbicide amount 320 g/ha
Outline: as §1

[6] = system: Triticum aestivum; assay: as above; conditions: for e: Application herbicide amount 320 g/ha, effect on crop; for e (Triticum aestivum) effect on crop: application to foliage, application herbicide amount 320 g/ha
Outline: as §1

[7] = system: Echinochloa oryzacola Vasing.; assay: Test Example 2: herbicidal activity, application during weed generation in submerged conditions; conditions: Eighteenth Table; application herbicide amount 320 g/ha
Outline: (§2)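 Alluvial soil in Wagner pots flooded to 4 cm water depth; seeds sown mixed, grown in greenhouse at 25–30 °C. At one- to two-leaf stage, emulsion diluted with water to the set rate (g/ha) was applied to the water surface. Effect scored 0–5 by herbicidal ratio three weeks later.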

[8] = system: Scirpus juncoides; assay: as above; conditions: Eighteenth Table; application herbicide amount 320 g/ha
Outline: as §2

[9] = system: Monochoria vaginalis; assay: as above; conditions: Eighteenth Table; application herbicide amount 320 g/ha
Outline: as §2

SMILES | b [1] | g [2] | c [3] | f [4] | d [5] | e [6] | A (Echinochloa oryzicola Vasing.) herbicidal ratio grade [7] | B (Scirpus juncoides) herbicidal ratio grade [8] | C (Monochoria vaginalis) herbicidal ratio grade [9] | b (Zea mays) effect on crop [1] | g (Brassica campestris L.) effect on crop [2] | c (Glycine max) effect on crop [3] | f (Beta vulgaris ssp. vulgaris) effect on crop [4] | d (directly sowed Oryza sativa) effect on crop [5] | e (Triticum aestivum) effect on crop [6]
Cc1nnc(NC(=O)c2ccc(C(F)(F)F)n3c(SCC(C)C)nnc23)o1 [1-093] | 0 (Herbicidal ratio of 5% or less (almost no effect)) | 3 (Herbicidal ratio of 40% or more and less than 70%) | 4 (Herbicidal ratio of 70% or more and less than 90%) | 5 (Herbicidal ratio of 90% or more (almost completely withered)) | 3 (Herbicidal ratio of 40% or more and less than 70%) | 0 (Herbicidal ratio of 5% or less (almost no effect)) | 3 (Herbicidal ratio of 40% or more and less than 70%) | 3 (Herbicidal ratio of 40% or more and less than 70%) | 3 (Herbicidal ratio of 40% or more and less than 70%) | – | – | – | – | – | –
Cc1nnc(NC(=O)c2ccc(C(F)(F)F)n3c([S+]([O-])C(C)C)nnc23)o1 (stereo not drawn) [1-035] | – | – | – | – | – | – | 5 (Herbicidal ratio of 90% or more (almost completely withered)) | 4 (Herbicidal ratio of 70% or more and less than 90%) | 4 (Herbicidal ratio of 70% or more and less than 90%) | 4 (Herbicidal ratio of 70% or more and less than 90%) | 3 (Herbicidal ratio of 40% or more and less than 70%) | 3 (Herbicidal ratio of 40% or more and less than 70%) | 5 (Herbicidal ratio of 90% or more (almost completely withered)) | 4 (Herbicidal ratio of 70% or more and less than 90%) | 2 (Herbicidal ratio of 20% or more and less than 40%)
Cc1nnc(NC(=O)c2ccc(C(F)(F)F)n3c(SC(C)(C)C)nnc23)o1 [1-095] | 0 (Herbicidal ratio of 5% or less (almost no effect)) | 3 (Herbicidal ratio of 40% or more and less than 70%) | 2 (Herbicidal ratio of 20% or more and less than 40%) | 5 (Herbicidal ratio of 90% or more (almost completely withered)) | 3 (Herbicidal ratio of 40% or more and less than 70%) | 1 (Herbicidal ratio of 5% or more and less than 20%) | 4 (Herbicidal ratio of 70% or more and less than 90%) | 5 (Herbicidal ratio of 90% or more (almost completely withered)) | 4 (Herbicidal ratio of 70% or more and less than 90%) | – | – | – | – | – | –
Cc1nnc(NC(=O)c2ccc(C(F)(F)F)n3c(-c4cccc(Cl)n4)nnc23)o1 [1-055] | 0 (Herbicidal ratio of 5% or less (almost no effect)) | 4 (Herbicidal ratio of 70% or more and less than 90%) | 0 (Herbicidal ratio of 5% or less (almost no effect)) | 5 (Herbicidal ratio of 90% or more (almost completely withered)) | 3 (Herbicidal ratio of 40% or more and less than 70%) | 1 (Herbicidal ratio of 5% or more and less than 20%) | 3 (Herbicidal ratio of 40% or more and less than 70%) | 3 (Herbicidal ratio of 40% or more and less than 70%) | 3 (Herbicidal ratio of 40% or more and less than 70%) | – | – | – | – | – | –
Cc1cc(-c2nnc3c(C(=O)Nc4nnc(C)o4)ccc(C(F)(F)F)n23)n(C)n1 [1-056] | 4 (Herbicidal ratio of 70% or more and less than 90%) | 5 (Herbicidal ratio of 90% or more (almost completely withered)) | 4 (Herbicidal ratio of 70% or more and less than 90%) | 5 (Herbicidal ratio of 90% or more (almost completely withered)) | 4 (Herbicidal ratio of 70% or more and less than 90%) | 1 (Herbicidal ratio of 5% or more and less than 20%) | 5 (Herbicidal ratio of 90% or more (almost completely withered)) | 4 (Herbicidal ratio of 70% or more and less than 90%) | 4 (Herbicidal ratio of 70% or more and less than 90%) | – | – | – | – | – | –
Cc1nnc(NC(=O)c2ccc(C(F)(F)F)n3c(-c4ccccc4)nnc23)o1 [1-012] | – | – | – | – | – | – | 2 (Herbicidal ratio of 20% or more and less than 40%) | 2 (Herbicidal ratio of 20% or more and less than 40%) | 2 (Herbicidal ratio of 20% or more and less than 40%) | 0 (Herbicidal ratio of 5% or less (almost no effect)) | 4 (Herbicidal ratio of 70% or more and less than 90%) | 1 (Herbicidal ratio of 5% or more and less than 20%) | 3 (Herbicidal ratio of 40% or more and less than 70%) | 2 (Herbicidal ratio of 20% or more and less than 40%) | 0 (Herbicidal ratio of 5% or less (almost no effect))
CCC(C)Sc1nnc2c(C(=O)Nc3nnc(C)o3)ccc(C(F)(F)F)n12 (stereo not drawn) [1-094] | 0 (Herbicidal ratio of 5% or less (almost no effect)) | 3 (Herbicidal ratio of 40% or more and less than 70%) | 4 (Herbicidal ratio of 70% or more and less than 90%) | 5 (Herbicidal ratio of 90% or more (almost completely withered)) | 3 (Herbicidal ratio of 40% or more and less than 70%) | 1 (Herbicidal ratio of 5% or more and less than 20%) | 4 (Herbicidal ratio of 70% or more and less than 90%) | 3 (Herbicidal ratio of 40% or more and less than 70%) | 3 (Herbicidal ratio of 40% or more and less than 70%) | – | – | – | – | – | –
Cc1nnc(NC(=O)c2ccc(C(F)(F)F)n3c(CC(=O)O)nnc23)o1 [1-048] | – | – | – | – | – | – | 0 (Herbicidal ratio of 5% or less (almost no effect)) | 1 (Herbicidal ratio of 5% or more and less than 20%) | 0 (Herbicidal ratio of 5% or less (almost no effect)) | 0 (Herbicidal ratio of 5% or less (almost no effect)) | 4 (Herbicidal ratio of 70% or more and less than 90%) | 0 (Herbicidal ratio of 5% or less (almost no effect)) | 5 (Herbicidal ratio of 90% or more (almost completely withered)) | 4 (Herbicidal ratio of 70% or more and less than 90%) | 1 (Herbicidal ratio of 5% or more and less than 20%)
Cc1nnc(NC(=O)c2ccc(C(F)(F)F)n3c(CSCC(F)(F)F)nnc23)o1 [1-031] | – | – | – | – | – | – | 3 (Herbicidal ratio of 40% or more and less than 70%) | 2 (Herbicidal ratio of 20% or more and less than 40%) | 2 (Herbicidal ratio of 20% or more and less than 40%) | 0 (Herbicidal ratio of 5% or less (almost no effect)) | 3 (Herbicidal ratio of 40% or more and less than 70%) | 1 (Herbicidal ratio of 5% or more and less than 20%) | 3 (Herbicidal ratio of 40% or more and less than 70%) | 3 (Herbicidal ratio of 40% or more and less than 70%) | 1 (Herbicidal ratio of 5% or more and less than 20%)
COc1ccccc1-c1nnc2c(C(=O)Nc3nnc(C)o3)ccc(C(F)(F)F)n12 [1-047] | – | – | – | – | – | – | 3 (Herbicidal ratio of 40% or more and less than 70%) | 2 (Herbicidal ratio of 20% or more and less than 40%) | 3 (Herbicidal ratio of 40% or more and less than 70%) | 0 (Herbicidal ratio of 5% or less (almost no effect)) | 4 (Herbicidal ratio of 70% or more and less than 90%) | 1 (Herbicidal ratio of 5% or more and less than 20%) | 5 (Herbicidal ratio of 90% or more (almost completely withered)) | 3 (Herbicidal ratio of 40% or more and less than 70%) | 0 (Herbicidal ratio of 5% or less (almost no effect))
